Values quoted from earlier work, collected in US8911765B2, “Biodegradable, polymer coverings for breast implants” (Tyrx, Inc., priority 2007, dated 2014).

Conditions: rabbit, in vivo

Structure (SMILES): O=S(=O)([O-])CCS.[Na+] [Mesna, sodium 2-mercaptoethane sulfonate]
- capsule formation around implants: reduce capsule formation
